Experimental data: publication PMC9311798, “A Novel Class of Potent Anti-Tyrosinase Compounds with Antioxidant Activity, 2-(Substituted phenyl)-5-(trifluoromethyl)benzo[d]thiazoles: In Vitro and In Silico Insights” (Antioxidants, 2022)

Tests used:
[1] = target: T1, mushroom tyrosinase (Agaricus bisporus, UniProt C7FF04); experiment: Mushroom tyrosinase inhibition assay; format: biochemical; conditions: L-tyrosine as substrate
T1 construct: purchased Sigma-Aldrich
Procedure: Mushroom tyrosinase inhibitory activity was determined as described previously, with minor modifications. L-Tyrosine was used as a substrate to determine enzyme activities. […] These dose-dependent inhibition experiments were carried out three times using three to five different concentrations of test compounds to determine IC50 values. Log–linear curves and their equations were derived from the observed percentages of inhibition.

[2] = tested on: B16F10 murine melanoma cells; experiment: B16F10 cell viability assay (EZ-Cytox); format: cell-based; conditions: concentrations ≤20 μM, 48 h
Procedure: B16F10 murine melanoma cells were obtained from the American Type Culture Collection (ATCC, Manassas, VA, USA). Phosphate buffer solution (PBS), Dulbecco’s modified Eagle’s medium (DMEM), streptomycin, penicillin, trypsin, and fetal bovine serum (FBS) were purchased from Gibco/Thermo Fisher Scientific (Carlsbad, CA, USA). B16F10 cells were cultured in a DMEM solution comprising 10% heat-inactivated FBS, penicillin (100 IU/mL), and streptomycin (100 µg/mL), at 37 °C in a humidified 5% CO2 atmosphere. Experiments for anti-melanogenesis activity, cell viability, and anti-tyrosinase activity were assayed on these cells in 96- or 6-well culture plates.
Cell viability assays for B16F10 were performed using the EZ-Cytox assay (EZ-3000, DoGenBio, Seoul, Korea). In brief, B16F10 cells were seeded in a 96-well plate at a density of 1 × 10^4 cells/well, and cultured at 37 °C for 24 h in a humidified 5% CO2 atmosphere. The next day, B16F10 cells were exposed to six concentrations of 1a or 1b (0, 1, 2, 5, 10, or 20 μM), and incubated under the same conditions for 48 h. Then, the EZ-Cytox solution (10 μL) was added to each well, and the cells mixed with the EZ-Cytox solution were further incubated for 2 h. At 450 nm, optical densities were measured using a microplate reader (VersaMax^TM, Molecular Devices, Sunnyvale, CA, USA).

[3] = tested on: B16F10 murine melanoma cells; experiment: Extracellular melanin content (melanin release into medium) in α-MSH/IBMX-stimulated cells; format: cell-based
Procedure: The anti-melanogenic activities of 1a and 1b were determined using a standard melanin content assay, with minor changes. Briefly, B16F10 cells were seeded in the wells of a 6-well plate at a density of 1 × 10^5 cells/well, and allowed to adhere to well bottoms over 24 h under the conditions used for cell culture (Section 2.3.5). […] Absorbances of culture media at 405 nm were used to determine extracellular melanin contents.

[4] = tested on: tyrosinase glycosylation in B16F10 cells; experiment: Western blot of glycosylated and non-glycosylated tyrosinase; format: cell-based, murine; conditions: 2, 5, 10, 20 µM, 48 h; cytosolic fraction
Procedure: (§1) Five different concentrations of 1b (0, 2, 5, 10, and 20 µM) were exposed to B16F10 cells for 48 h, and the cells were washed with cold PBS two times, harvested, lysed, and centrifuged at 4 °C (12,000 rpm for 10 min). Cell pellets were suspended in 10 mM Tris (pH 8.0) containing 1.5 mM MgCl2, 1 mM DTT, 0.1% NP-40, and protease inhibitors (GenDEPOT), incubated on ice for 15 min, and centrifuged at 12,000× g for 15 min at 4 °C. Supernatants (cytosolic fractions) and pellets were resuspended in 10 mM Tris (pH 8.0) containing 50 mM KCl, 100 mM NaCl, and protease inhibitor, incubated on ice for 30 min, and centrifuged at 12,000× g for 15 min at 4 °C. The resultant supernatants were nuclear fractions. The protein concentrations were determined by a Bicinchoninic Acid (BCA)™ Assay Kit (Pierce, Rockford, IL, USA). The lysed protein samples were mixed in loading buffer (0.2% bromophenol blue, 12.5 mM Tris-HCl, pH 6.8, 10% 2-mercaptoethanol, and 4% SDS) at a volume ratio of 1:4, and boiled for 10 min. […] Quantification of Western blot data were analyzed by CS Analyzer 3.2 (Densitograph) image software (http://www.attokorea.co.kr, admitted on 21 May 2022).

[5] = tested on: MITF in B16F10 cells; experiment: Western blot of nuclear MITF; format: cell-based, murine; conditions: nuclear fraction
Procedure: as §1

[6] = DPPH radical scavenging activity assay; conditions: compound 1.0 mM, 30 min in the dark, 517 nm
Procedure: The DPPH (2,2-diphenyl-1-picrylhydrazyl) scavenging activities of synthesized compounds 1a–1p were investigated as previously described, with minor modifications. A dimethyl sulfoxide solution (20 µL) containing 10 mM of each compound was mixed with DPPH methanol solution (0.2 mM, 180 µL) in the wells of a 96-well plate, and placed in the dark for 30 min at room temperature. At 517 nm, optical densities were measured using a microplate reader (VersaMax^TM, Molecular Devices, Sunnyvale, CA, USA). The DPPH radical scavenging ability of the 2-arylbenzothiazole derivatives was compared with that of L-ascorbic acid, the positive control. All experiments were performed independently in triplicate.

[7] = ABTS radical scavenging activity assay; conditions: 100 µM, 2 min in the dark
Procedure: At 734 nm, optical densities of the solutions were measured using a microplate reader (VersaMax^TM, Molecular Devices, Sunnyvale, CA, USA). The ABTS radical scavenging capacities of the 16 2-arylbenzothiazole derivatives were compared with trolox. All experiments were performed independently in triplicate.

[8] = target: T1, mushroom tyrosinase; experiment: Mushroom tyrosinase inhibition assay; format: biochemical; conditions: L-DOPA as substrate

T1 sequence (C7FF04 1-392 limits assumed): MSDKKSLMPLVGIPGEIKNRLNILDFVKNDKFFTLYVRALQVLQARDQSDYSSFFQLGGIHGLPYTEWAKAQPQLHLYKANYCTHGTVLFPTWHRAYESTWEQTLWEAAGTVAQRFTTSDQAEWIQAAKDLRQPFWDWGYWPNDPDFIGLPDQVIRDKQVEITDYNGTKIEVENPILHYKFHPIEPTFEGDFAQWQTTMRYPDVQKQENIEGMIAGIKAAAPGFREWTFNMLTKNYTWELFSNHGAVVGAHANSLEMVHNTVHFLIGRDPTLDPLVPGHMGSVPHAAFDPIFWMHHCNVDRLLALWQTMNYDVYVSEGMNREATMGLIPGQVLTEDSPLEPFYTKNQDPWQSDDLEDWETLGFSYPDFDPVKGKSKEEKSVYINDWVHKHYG

For `Oc1ccc(-c2nc3cc(C(F)(F)F)ccc3s2)c(O)c1` [Compound 1b, 4-(5-(Trifluoromethyl)benzo[d]thiazol-2-yl)benzene-1,3-diol], the IC50 [1] was 0.2 ± 0.01 µM, the “potency relative to kojic acid (fold more potent)” value ([1]; IC50 versus kojic acid) was 55 fold and the “increase of anti-tyrosinase activity relative to 1a” value ([1]; versus 1a) was 240 fold. For the same compound, the “cytotoxic effect on B16F10 cell viability” value [2] was “Neither compound exhibited a significant cytotoxic effect”, the melanin release ([3]; 20 µM) was “reduced melanin release to control levels” and the “effect on melanin content in media” value ([3]; 5, 10, 20 µM, α-MSH (1 µM) + IBMX (200 µM), 48 h) was “concentration-dependently and significantly reduced melanin content increases”. The “ratio of glycosylated tyrosinase to total tyrosinase” value [4] was “significantly reduced”, the MITF protein levels ([5]; high concentrations (10–20 µM)) was “significantly and dose-dependently reduced MITF protein levels” and the MITF protein levels ([5]; low concentrations (2–5 μM)) was “MITF protein levels increased”. The “DPPH radical scavenging activity” value [6] was “moderate DPPH radical scavenging efficacy”, the “ABTS radical scavenging activity (in words)” value [7] was “potently scavenged the ABTS radical” and the “ABTS free radical scavenged (%)” value ([7]; 734 nm) was 75%. For the same compound, the IC50 [8] was 1.7 ± 0.11 µM.
